Assays:
[1] = test system: H460; assay: In-vitro cytotoxicity, CCK-8 assay; format: cell-based; details: H460 (lung cancer); cell viability after 48 hours
[2] = test system: 4T1; assay: In-vitro cytotoxicity, CCK-8 assay; format: cell-based; details: 4T1 (murine breast cancer, stage IV); cell viability after 48 hours
Procedure: (§1) In-Vitro cytotoxicity assays of GID10-ADC, DM1 and GID10 on HL-60, HCC1806, MDA-MB-231, Raji, RPMI8226, NCI-H929, MM.1S, G-361, THP-1, PL45, AsPC-1, KLM-1, OV90, 4Tl and EL-4 cells. Cell viability was measured after 48 hours using Cell Counting Kit-8 (CCK-8) assay (DOJINDO™, Cat. No. CK04-13), as shown in Table 3. For example, on Day 0, THP-1 cells were seeded at […] cells per well in a 96-well plate and treated with diluted test compounds. The cells were incubated for 48 hours at 37° C. with 5% CO2. On Day 2, 20 μl of CCK-8 was added to each well, followed by incubation for 1-4 hours. Absorbance at 450 nm was then measured to assess cell viability and the impact of the test compounds. For suspension cells, such as HL-60, Raji, RPMI8226, NCI-H929, MM. 1S, and THP-1, 5×10^4 cells per well were inoculated into a 96-well plate. For adherent cells, such as HCC1806, MDA-MB-231, G361, PL45, AsPC-1, KLM-1, OV90, and EL-4, 1.5-5×10^3 cells per well were inoculated based on their doubling time. Adherent cells with a doubling time of less than 24 hours were seeded at 1.5×10^3 cells per well (EL-4), while those with a doubling time of more than 24 hours were seeded at 5×10^3 cells per well. […] DM1 was used as the positive control agent. The cell lines tested included HL-60, HCC1806, MDA-MB-231, Raji, RPMI8226, NCI-H929, MM.1S, G-361, THP-1, PL45, AsPC-1, KLM-1, OV90, 4T1, and EL-4 cells. Cell viability was measured after 48 hours using the Cell Counting Kit-8 (CCK-8) assay (DOJINDO™, Cat. No. CK04-13). IC50 (M) was calculated to determine the efficacy of the antibody, DM1, and ADC on the various cancer cell lines.

[3] = test system: ASPC1; assay: In-vitro cytotoxicity, CCK-8 assay; format: cell-based; details: ASPC1 (pancreatic cancer); cell viability after 48 hours
Procedure: as §1

[4] = test system: EL4; assay: In-vitro cytotoxicity, CCK-8 assay; format: cell-based; details: EL4 (murine lymphoma); cell viability after 48 hours
Procedure: as §1

[5] = test system: G361; assay: In-vitro cytotoxicity, CCK-8 assay; format: cell-based; details: G361 (melanoma); cell viability after 48 hours
Procedure: as §1

[6] = test system: HCC1806; assay: In-vitro cytotoxicity, CCK-8 assay; format: cell-based; details: HCC1806 (TNBC); cell viability after 48 hours
Procedure: as §1

[7] = test system: MDA-MB-231; assay: In-vitro cytotoxicity, CCK-8 assay; format: cell-based; details: MDA-MB-231 (TNBC); cell viability after 48 hours
Procedure: as §1

[8] = test system: MM.1S; assay: In-vitro cytotoxicity, CCK-8 assay; format: cell-based; details: MM.1S (MM); cell viability after 48 hours
Procedure: as §1

[9] = test system: NCI-H929; assay: In-vitro cytotoxicity, CCK-8 assay; format: cell-based; details: NCI-H929 (MM); cell viability after 48 hours
Procedure: as §1

[10] = test system: OV90; assay: In-vitro cytotoxicity, CCK-8 assay; format: cell-based; details: OV90 (ovarian cancer); cell viability after 48 hours
Procedure: as §1

[11] = test system: RPMI8226; assay: In-vitro cytotoxicity, CCK-8 assay; format: cell-based; details: RPMI8226 (MM); cell viability after 48 hours
Procedure: as §1

[12] = test system: Raji; assay: In-vitro cytotoxicity, CCK-8 assay; format: cell-based; details: Raji (DLBCL); cell viability after 48 hours
Procedure: as §1

[13] = test system: THP-1 cells; assay: In-vitro cytotoxicity, CCK-8 assay; format: cell-based, human; details: THP-1 (AML), cell viability after 48 hours
Procedure: (§2) In-Vitro cytotoxicity assays of GID10-ADC, DM1 and GID10 on HL-60, HCC1806, MDA-MB-231, Raji, RPMI8226, NCI-H929, MM.1S, G-361, THP-1, PL45, AsPC-1, KLM-1, OV90, 4Tl and EL-4 cells. Cell viability was measured after 48 hours using Cell Counting Kit-8 (CCK-8) assay (DOJINDO™, Cat. No. CK04-13), as shown in Table 3. For example, on Day 0, THP-1 cells were seeded at […] cells per well in a 96-well plate and treated with diluted test compounds. The cells were incubated for 48 hours at 37° C. with 5% CO2. On Day 2, 20 μl of CCK-8 was added to each well, followed by incubation for 1-4 hours. Absorbance at 450 nm was then measured to assess cell viability and the impact of the test compounds. […] Cell viability was measured after 48 hours using the Cell Counting Kit-8 (CCK-8) assay (DOJINDO™, Cat. No. CK04-13). IC50 (M) was calculated to determine the efficacy of the antibody, DM1, and ADC on the various cancer cell lines.
(§3) In-Vitro cytotoxicity assays of Dxd-conjugated ADC and free payload Dxd on THP-1, NCI-N87, Capan-1, and KLM-1 cells. Cell viability was measured after 48 hours using Cell Counting Kit-8 (CCK-8) assay (DOJINDO™, Cat. No. CK04-13), as shown in Table 4. […] Absorbance at 450 nm was then measured to assess cell viability and the impact of the test compounds. […] Cell viability was measured after 48 hours using the Cell Counting Kit-8 (CCK-8) assay (DOJINDO™, Cat. No. CK04-13). […]

[14] = test system: KLM-1; assay: In-vitro cytotoxicity, CCK-8 assay; format: cell-based; details: KLM-1 (pancreatic cancer), cell viability after 48 hours
Procedure: as §2, §3

[15] = test system: Capan-1; assay: In-vitro cytotoxicity, CCK-8 assay; format: cell-based; details: Capan-1 (pancreatic cancer); cell viability after 48 hours
Procedure: (§4) In-Vitro cytotoxicity assays of Dxd-conjugated ADC and free payload Dxd on THP-1, NCI-N87, Capan-1, and KLM-1 cells. Cell viability was measured after 48 hours using Cell Counting Kit-8 (CCK-8) assay (DOJINDO™, Cat. No. CK04-13), as shown in Table 4. For example, on Day 0, THP-1 cells were seeded at 5×10^4 cells per well in a 96-well plate and treated with diluted test compounds. The cells were incubated for 48 hours at 37° C. with 5% CO2. On Day 2, 15 μl of CCK-8 was added to each well, followed by incubation for 1-4 hours. Absorbance at 450 nm was then measured to assess cell viability and the impact of the test compounds. For suspension cells, such as THP-1, 2-5×10^4 cells per well were inoculated into a 96-well plate. For adherent cells, such as NCI-N87, Capan-1, and KLM-1, 1.5-5×10^3 cells per well were inoculated based on their doubling time. As shown in FIGS. 6A-6C, THP-1, and KLM-1 cells are not killed in the presence of G1D10 antibody alone. […] Linker-Dxd was used as the positive control agent. The cell lines tested included THP-1, NCI-N87, Capan-1, and KLM-1 cells. Cell viability was measured after 48 hours using the Cell Counting Kit-8 (CCK-8) assay (DOJINDO™, Cat. No. CK04-13). IC50 (M) was calculated to determine the efficacy of the Linker-Dxd and the Dxd-conjugated ADC on the various cancer cell lines.

[16] = test system: NCI-N87; assay: In-vitro cytotoxicity, CCK-8 assay; format: cell-based; details: NCI-N87 (gastric cancer); cell viability after 48 hours
Procedure: as §4

[17] = molecular target: cell surface glucose-related protein 78 (GRP78) on cancer cell lines (human) (UniProt P11021); assay: flow cytometry, OVCAR3 cells; A488-anti-mouse-IgG alone 1.8%
Sequence of cell surface glucose-related protein 78 (GRP78) on cancer cell lines (human) (P11021 19-654): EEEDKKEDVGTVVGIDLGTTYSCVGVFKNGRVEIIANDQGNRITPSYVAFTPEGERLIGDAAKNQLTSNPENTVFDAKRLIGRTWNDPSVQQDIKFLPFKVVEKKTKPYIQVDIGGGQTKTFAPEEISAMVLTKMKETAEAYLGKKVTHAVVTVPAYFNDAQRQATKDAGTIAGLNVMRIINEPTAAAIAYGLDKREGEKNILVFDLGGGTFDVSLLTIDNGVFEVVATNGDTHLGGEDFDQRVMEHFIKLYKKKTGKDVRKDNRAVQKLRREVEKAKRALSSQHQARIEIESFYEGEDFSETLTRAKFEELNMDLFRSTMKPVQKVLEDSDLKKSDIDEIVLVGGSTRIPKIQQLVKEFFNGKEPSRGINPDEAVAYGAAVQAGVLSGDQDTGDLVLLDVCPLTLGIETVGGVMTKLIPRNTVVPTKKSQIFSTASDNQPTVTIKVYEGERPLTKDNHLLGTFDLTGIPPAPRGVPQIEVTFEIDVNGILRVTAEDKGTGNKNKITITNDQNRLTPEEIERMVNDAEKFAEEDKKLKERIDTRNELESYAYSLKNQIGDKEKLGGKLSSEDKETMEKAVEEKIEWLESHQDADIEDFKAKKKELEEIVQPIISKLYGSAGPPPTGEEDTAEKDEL

In the case of `COc1cc2cc(c1Cl)N(C)C(=O)C[C@H](OC(=O)[C@H](C)N(C)C(=O)CCS)[C@]1(C)O[C@H]1[C@H](C)[C@@H]1C[C@@](O)(NC(=O)O1)[C@H](OC)/C=C/C=C(\C)C2` [DM1, emtansine (DM1)], the IC50 [1] is reported as 1.68 nM, the IC50 [2] is reported as 83 nM and the IC50 [3] is reported as 60.2 nM. The IC50 [4] was 1.52 nM, the IC50 [5] was 3.11 nM and the IC50 [6] was 27.2 nM. For the same molecule, the IC50 [7] was 28.5 nM, the IC50 [8] was 4.86 nM and the IC50 [9] was 1.13 nM. For the same molecule, the IC50 [10] was 55.2 nM, the IC50 [11] was 1.79 nM and the IC50 [12] was 4.35 nM. It also gave an IC50 ([13]; Table 3) of 4.63 nM and an IC50 ([14]; Table 3) of 1.61 nM.
Work on “N-hydrozysuccinimide (NHS)-VC-para-aminobenzyl carbamate (PABC)-Dxd [Linker-Dxd]” yielded an IC50 ([13]; Table 4) of 61.2 nM, an IC50 ([14]; Table 4) of 184 nM and an IC50 [15] of 296 nM. The IC50 [16] was 161 nM.
Work on “anti-GRP78 antibody C38 (eBioscience, Cat. No. 14-9768-82)” yielded a % (flow cytometry cell surface staining) [17] of 2.3%.
